Data from ChEMBL document CHEMBL3407491, “Synthesis, characterization and in vitro photodynamic antimicrobial activity of basic amino acid-porphyrin conjugates” (Eur J Med Chem, 2015).
Values after ≈ are worked out from the molar mass of the structure shown. Active and inactive are the calls of the source. The calls are words filed in the database; no cut-off is given here.

Columns and labels:
Escherichia coli [1] = assay: Antibacterial activity against Escherichia coli ATCC 25922 incubated in dark for 30 mins followed by exposure to light fluences at 650 nm and 6 J/cm2 and then incubated overnight measured after 24 hrs; type: functional; conditions: ATCC 25922, light or radiation study
Pseudomonas aeruginosa [2] = assay: Antibacterial activity against Pseudomonas aeruginosa ATCC 27853 incubated in dark for 30 mins measured after 24 hrs; type: functional
Pseudomonas aeruginosa [3] = assay: Antibacterial activity against Pseudomonas aeruginosa ATCC 27853 incubated in dark for 30 mins followed by exposure to light fluences at 650 nm and 6 J/cm2 and then incubated overnight measured after 24 hrs; type: functional; conditions: ATCC 27853, light or radiation study
Staphylococcus aureus [4] = assay: Antibacterial activity against methicillin-resistant Staphylococcus aureus incubated in dark for 30 mins followed by exposure to light fluences at 650 nm and 6 J/cm2 and then incubated overnight measured after 24 hrs; type: functional; conditions: light or radiation study
Escherichia coli [5] = assay: Bactericidal activity against Escherichia coli ATCC 25922 incubated in dark for 30 mins followed by exposure to light fluences at 650 nm and 6 J/cm2 and then incubated overnight followed by further incubation on LB agar plates for another 24 hrs; type: functional; conditions: ATCC 25922, light or radiation study
Escherichia coli [6] = assay: Antibacterial activity against Escherichia coli ATCC 25922 incubated in dark for 30 mins measured after 24 hrs; type: functional
[7] = Photostability at 2 x 10^-5 mol/L exposed to 4.2 mW/cm2 light energy density assessed as change in absorption spectra after 30 mins post irradiation; type: physicochemical; conditions: 0.5 h, 20 µM
Escherichia coli [8] = assay: Antibacterial activity against Escherichia coli ATCC 25922 incubated in dark for 30 mins and grown for 24 hrs followed by further incubation on LB agar plates for another 24 hrs; type: functional
Staphylococcus aureus [9] = assay: Antibacterial activity against methicillin-resistant Staphylococcus aureus assessed as log reduction in bacterial count at 10 uM incubated in dark for 30 mins followed by exposure to light fluences at 650 nm and 6 J/cm2 and then incubated overnight measured after 24 hrs; type: functional
Escherichia coli [10] = assay: Antibacterial activity against Escherichia coli ATCC 25922 assessed as log reduction in bacterial count at 10 uM incubated in dark for 30 mins followed by exposure to light fluences at 650 nm and 6 J/cm2 and then incubated overnight measured after 24 hrs; type: functional
Staphylococcus aureus [11] = assay: Antibacterial activity against methicillin-resistant Staphylococcus aureus incubated in dark for 30 mins and grown for 24 hrs followed by further incubation on LB agar plates for another 24 hrs; type: functional
Staphylococcus aureus [12] = assay: Bactericidal activity against methicillin-resistant Staphylococcus aureus incubated in dark for 30 mins followed by exposure to light fluences at 650 nm and 6 J/cm2 and then incubated overnight followed by further incubation on LB agar plates for another 24 hrs; type: functional; conditions: light or radiation study
Staphylococcus aureus [13] = assay: Antibacterial activity against methicillin-resistant Staphylococcus aureus incubated in dark for 30 mins measured after 24 hrs; type: functional
Pseudomonas aeruginosa [14] = assay: Antibacterial activity against Pseudomonas aeruginosa ATCC 27853 assessed as log reduction in bacterial count at 10 uM incubated in dark for 30 mins followed by exposure to light fluences at 650 nm and 6 J/cm2 and then incubated overnight measured after 24 hrs; type: functional
[15] = Singlet oxygen generation of the compound exposed to 4.2 mW/cm2 light energy density assessed as singlet oxygen quantum yield measured at 410 nm in 10 seconds intervals of irradiation at 0.2 uM by DPBF scavenger based assay
[16] = Octanol water partition coefficient, log P of the compound by reverse-phase thin-layer chromatography; type: physicochemical
Pseudomonas aeruginosa [17] = assay: Bactericidal activity against Pseudomonas aeruginosa ATCC 27853 incubated in dark for 30 mins followed by exposure to light fluences at 650 nm and 6 J/cm2 and then incubated overnight followed by further incubation on LB agar plates for another 24 hrs; type: functional; conditions: ATCC 27853, light or radiation study
Pseudomonas aeruginosa [18] = assay: Antibacterial activity against Pseudomonas aeruginosa ATCC 27853 incubated in dark for 30 mins and grown for 24 hrs followed by further incubation on LB agar plates for another 24 hrs; type: functional
Escherichia coli [19] = assay: Antibacterial activity against Escherichia coli ATCC 25922 at 3.91 uM to 62.50 uM incubated in dark for 30 mins followed by exposure to light fluences at 650 nm and 6 J/cm2 and then incubated overnight measured after 24 hrs; type: functional, organism-based
Escherichia coli [20] = assay: Antibacterial activity against Escherichia coli ATCC 25922 at 0.49 uM to 7.8 uM incubated in dark for 30 mins followed by exposure to light fluences at 650 nm and 6 J/cm2 and then incubated overnight measured after 24 hrs; type: functional, organism-based
Pseudomonas aeruginosa [21] = assay: Antibacterial activity against Pseudomonas aeruginosa ATCC 27853 at 3.91 uM to 62.50 uM incubated in dark for 30 mins followed by exposure to light fluences at 650 nm and 6 J/cm2 and then incubated overnight measured after 24 hrs; type: functional, organism-based
Staphylococcus aureus [22] = assay: Antibacterial activity against methicillin-resistant Staphylococcus aureus at 0.49 uM to 7.8 uM incubated in dark for 30 mins followed by exposure to light fluences at 650 nm and 6 J/cm2 and then incubated overnight measured after 24 hrs; type: functional, organism-based
Pseudomonas aeruginosa [23] = assay: Antibacterial activity against Pseudomonas aeruginosa ATCC 27853 at 0.49 uM to 7.8 uM incubated in dark for 30 mins followed by exposure to light fluences at 650 nm and 6 J/cm2 and then incubated overnight measured after 24 hrs; type: functional, organism-based

Compound	MIC (Escherichia coli [1]) [µM]	MIC (Pseudomonas aeruginosa [2]) [µM]	MIC (Pseudomonas aeruginosa [3]) [µM]	MIC (Staphylococcus aureus [4]) [µM]	MBC (Escherichia coli [5]) [µM]	MIC (Escherichia coli [6]) [µM]	Activity [7] [%]	MBC (Escherichia coli [8]) [µM]	MBC (Staphylococcus aureus [11]) [µM]	MBC (Staphylococcus aureus [12]) [µM]	MIC (Staphylococcus aureus [13]) [µM]	Activity [15]	logP [16]	MBC (Pseudomonas aeruginosa [17]) [µM]	MBC (Pseudomonas aeruginosa [18]) [µM]	Activity (Escherichia coli [19])	Activity (Escherichia coli [20])	Activity (Pseudomonas aeruginosa [21])	Activity (Staphylococcus aureus [22])	Activity (Pseudomonas aeruginosa [23])	further results
NCCCC[C@H](N)C(=O)Nc1ccc(-c2c3nc(c(-c4ccc(NC(=O)[C@@H](N)CCCCN)cc4)c4ccc([nH]4)c(-c4ccc(NC(=O)[C@@H](N)CCCCN)cc4)c4nc(c(-c5ccc(N)cc5)c5ccc2[nH]5)C=C4)C=C3)cc1	15.6 (≈ 16.5 µg/mL)	250 (≈ 265 µg/mL)	31.2 (≈ 33.1 µg/mL)	31.2 (≈ 33.1 µg/mL)	31.2 (≈ 33.1 µg/mL)	125 (≈ 132 µg/mL)	< 20	> 500	500 (≈ 530 µg/mL)	62.5 (≈ 66.2 µg/mL)	125 (≈ 132 µg/mL)	0.73	1.21	62.5 (≈ 66.2 µg/mL)	> 500						Log reduction in bacterial count (Staphylococcus aureus [9]): 3; log reduction in bacterial count (Escherichia coli [10]): 3; log reduction in bacterial count (Pseudomonas aeruginosa [14]): 1
N=C(N)NCCC[C@H](N)C(=O)Nc1ccc(-c2c3nc(c(-c4ccc(N)cc4)c4ccc([nH]4)c(-c4ccc(N)cc4)c4nc(c(-c5ccc(N)cc5)c5ccc2[nH]5)C=C4)C=C3)cc1	62.5 (≈ 51.9 µg/mL)	62.5 (≈ 51.9 µg/mL)	62.5 (≈ 51.9 µg/mL)	62.5 (≈ 51.9 µg/mL)	125 (≈ 104 µg/mL)	62.5 (≈ 51.9 µg/mL)	< 20	125 (≈ 104 µg/mL)	500 (≈ 416 µg/mL)	500 (≈ 416 µg/mL)	62.5 (≈ 51.9 µg/mL)	0.47	1.25	250 (≈ 208 µg/mL)	250 (≈ 208 µg/mL)	inactive	inactive	inactive	inactive	inactive	
Nc1ccc(-c2c3nc(c(-c4ccc(N)cc4)c4ccc([nH]4)c(-c4ccc(NC(=O)[C@@H](N)Cc5c[nH]cn5)cc4)c4nc(c(-c5ccc(N)cc5)c5ccc2[nH]5)C=C4)C=C3)cc1	62.5 (≈ 50.7 µg/mL)	62.5 (≈ 50.7 µg/mL)	62.5 (≈ 50.7 µg/mL)	62.5 (≈ 50.7 µg/mL)	250 (≈ 203 µg/mL)	62.5 (≈ 50.7 µg/mL)	< 20	250 (≈ 203 µg/mL)	250 (≈ 203 µg/mL)	250 (≈ 203 µg/mL)	62.5 (≈ 50.7 µg/mL)	0.2	1.53	250 (≈ 203 µg/mL)	250 (≈ 203 µg/mL)	inactive	inactive	inactive	inactive	inactive	
NCCCC[C@H](N)C(=O)Nc1ccc(-c2c3nc(c(-c4ccc(N)cc4)c4ccc([nH]4)c(-c4ccc(NC(=O)[C@@H](N)CCCCN)cc4)c4nc(c(-c5ccc(N)cc5)c5ccc2[nH]5)C=C4)C=C3)cc1	15.6 (≈ 14.6 µg/mL)	250 (≈ 233 µg/mL)	15.6 (≈ 14.6 µg/mL)	7.81 (≈ 7.27 µg/mL)	31.2 (≈ 29.1 µg/mL)	250 (≈ 233 µg/mL)	< 20	500 (≈ 466 µg/mL)	250 (≈ 233 µg/mL)	15.6 (≈ 14.6 µg/mL)	125 (≈ 116 µg/mL)	0.79	1.3	31.2 (≈ 29.1 µg/mL)	500 (≈ 466 µg/mL)						Log reduction in bacterial count (Staphylococcus aureus [9]): 3; log reduction in bacterial count (Escherichia coli [10]): 2; log reduction in bacterial count (Pseudomonas aeruginosa [14]): >5
N[C@@H](Cc1c[nH]cn1)C(=O)Nc1ccc(-c2c3nc(c(-c4ccccc4)c4ccc([nH]4)c(-c4ccccc4)c4nc(c(-c5ccccc5)c5ccc2[nH]5)C=C4)C=C3)cc1	62.5 (≈ 47.9 µg/mL)	125 (≈ 95.9 µg/mL)	62.5 (≈ 47.9 µg/mL)	125 (≈ 95.9 µg/mL)	125 (≈ 95.9 µg/mL)	125 (≈ 95.9 µg/mL)	< 20	250 (≈ 192 µg/mL)	500 (≈ 383 µg/mL)	250 (≈ 192 µg/mL)	125 (≈ 95.9 µg/mL)	0.56	1.6	125 (≈ 95.9 µg/mL)	250 (≈ 192 µg/mL)	inactive	inactive	inactive	inactive	inactive	
